Data published in the NIST ThermoML archive (doi:10.1016/j.jct.2017.11.002).
± gives the expanded uncertainty stated by the source.

Experiments:
[1] = molar enthalpy of vaporization or sublimation; settings: 298.15 K; Crystal; Static calorimetry
[2] = Crystal, Calculated from knudsen effusion weight loss

molar enthalpy [1] [kcal/mol] | vapor or sublimation pressure ([2]; 394.16 K) [kPa] | vapor or sublimation pressure ([2]; 396.13 K) [kPa] | vapor or sublimation pressure ([2]; 398.11 K) [kPa] | vapor or sublimation pressure ([2]; 400.15 K) [kPa] | vapor or sublimation pressure ([2]; 402.1 K) [kPa] | vapor or sublimation pressure ([2]; 404.1 K) [kPa] | vapor or sublimation pressure ([2]; 406.15 K) [kPa] | vapor or sublimation pressure ([2]; 408.13 K) [kPa] | vapor or sublimation pressure ([2]; 410.11 K) [kPa] | vapor or sublimation pressure ([2]; 412.16 K) [kPa] | vapor or sublimation pressure ([2]; 414.11 K) [kPa] | vapor or sublimation pressure ([2]; 416.12 K) [kPa] | Structure (SMILES)
31.9 ± 1 |  |  |  |  |  |  |  |  |  |  |  |  | O=c1c2ccccc2[nH]c2ccccc12 [9(10H)-acridinone]
29.6 ± 0.693 | 0.0001465 ± 6e-05 | 0.0001788 ± 6e-05 | 0.0002123 ± 6.1e-05 | 0.0002508 ± 6.1e-05 | 0.0003035 ± 6.1e-05 | 0.0003591 ± 6.1e-05 | 0.0004322 ± 6.2e-05 | 0.000516 ± 6.3e-05 | 0.0005963 ± 6.4e-05 | 0.0007321 ± 6.5e-05 | 0.0008616 ± 6.7e-05 | 0.00101 ± 9.3e-05 | Cn1c2ccccc2c(=O)c2ccccc21 [N-methylacridone]
